Data as given in publication PMC10333884, “Large‐scale phosphomimetic screening identifies phospho‐modulated motif‐based protein interactions” (Molecular Systems Biology, 2023).
Residues, ends and D or L forms follow the SMILES beside them.

Experiments:
[1] = molecular target: T1, KPNA4 ARM Major (Homo sapiens, UniProt O00629); test: FP displacement assay, KPNA4 ARM major pocket; format: binding; conditions: for Kd: major pocket probe FITC-MYC 5 nM, 50 mM sodium phosphate pH 7.4, room temperature, at least three technical replicates, read-out: KD values ± SEM
T1 construct: 60-487; GST (cleaved yes); made in house; host or cells: Escherichia coli BL21-Gold(DE3)
T1 sequence (O00629 60-487): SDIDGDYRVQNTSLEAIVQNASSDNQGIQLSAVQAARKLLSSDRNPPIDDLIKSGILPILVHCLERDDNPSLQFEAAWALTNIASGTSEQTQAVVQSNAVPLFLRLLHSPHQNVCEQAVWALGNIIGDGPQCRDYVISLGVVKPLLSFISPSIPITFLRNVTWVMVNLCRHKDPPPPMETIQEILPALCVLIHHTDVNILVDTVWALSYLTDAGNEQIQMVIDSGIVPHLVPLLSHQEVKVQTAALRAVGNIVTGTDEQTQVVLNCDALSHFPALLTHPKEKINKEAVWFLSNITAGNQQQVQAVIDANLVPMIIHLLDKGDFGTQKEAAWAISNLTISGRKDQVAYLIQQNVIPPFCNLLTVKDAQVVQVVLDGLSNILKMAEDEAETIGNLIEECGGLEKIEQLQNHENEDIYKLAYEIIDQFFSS
Method: (§1) FP experiments were performed as described previously (Kliche et al, [2021]). Shortly, in order to monitor the binding event, FITC‐labelled peptides were used (excitation 495 nm, emission: 535 nm) and the FP signal was recorded in mP on a SpectraMax iD5 Multi‐Mode Microplate Reader (Molecular Devices) by measuring the emitted light in two angels. The measurements were performed at room temperature and prepared in nonbinding black half area 96‐well microplates (Corning®; 50 μl/well). For measuring direct binding, that is saturation curves, a 1:1 dilution series of protein domain (25 μl/well) was generated in 50 mM sodium phosphate buffer pH 7.4 and the measurement performed with 5 nM FITC‐labelled peptide (25 μl/well). The buffer‐corrected values were subsequently plotted with PRISM and fitted to the quadratic equation (Gianni et al, [2005]).
(§2) The 1:1 dilution series in this experiment was performed with the unlabelled peptide in 50 mM sodium phosphate buffer pH 7.4, so that each well‐contained unlabelled peptide (25 μl) at a certain concentration and pre‐formed complex (25 μl). The KD values of this indirectly monitored binding event were calculated as described previously (Nikolovska‐Coleska et al, [2004]). All measurements were at least in technical triplicates as well as biological duplicates when indicated. An amplitude shift between repeat measurements in the displacement experiments was occasionally observed due to variations in the protein preparations. If that was the case, the “active” protein concentration was back‐calculated according to the quadratic equation from the saturation curves performed in parallel. By comparing the active protein concentrations in the complex between different protein preparations, the amplitude was normalised.

[2] = tested on: KPNA4 ARM; test: Phosphomimetic ProP-PD selection, KPNA4 ARM; format: binding, human; conditions: phosphomimetic enrichment score of the wild-type/phosphomimetic (E) pair at the phosphosite, PM_HD2 phage selection; same score in the major and minor pocket; P-value in brackets not taken
[3] = molecular target: T2, KPNA4 ARM minor (Homo sapiens, UniProt O00629); test: FP displacement assay, KPNA4 ARM minor pocket; format: binding; conditions: for Kd: minor pocket probe FITC-NCOR2 5 nM, 50 mM sodium phosphate pH 7.4, room temperature, at least three technical replicates, read-out: KD values ± SEM
T2 construct: 60-487; GST (cleaved yes); made in house; host or cells: Escherichia coli BL21-Gold(DE3)
T2 sequence (O00629 60-487): as above
Method: as §1, §2

[4] = molecular target: T3, GGA1 VHS (Homo sapiens, UniProt Q9UJY5); test: FP displacement assay, GGA1 VHS; format: binding; conditions: FP displacement, probe FITC-IGF2R 5 nM, 50 mM sodium phosphate pH 7.4, room temperature; at least three technical replicates; read-out: KD values ± SEM
T3 construct: GGA1_VHS__Q9UJY5_1_157; GST (cleaved yes); made in house; host or cells: Escherichia coli BL21-Gold(DE3)
T3 sequence (Q9UJY5 1-157): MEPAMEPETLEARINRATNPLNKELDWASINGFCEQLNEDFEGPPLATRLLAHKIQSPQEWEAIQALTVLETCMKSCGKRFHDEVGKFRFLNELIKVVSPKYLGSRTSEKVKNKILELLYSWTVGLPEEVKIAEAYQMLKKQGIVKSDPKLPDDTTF
Method: as §1, §2

[5] = molecular target: T3, GGA1 VHS; test: Phosphomimetic ProP-PD selection, GGA1 VHS; conditions: phosphomimetic enrichment score of the wild-type/phosphomimetic (E) pair at the phosphosite, PM_HD2 phage selection; positive = phosphomimetic enhances binding; P-value in brackets not taken
Method: Selections using the PM_HD2 phage library were performed as described previously with minor modification to the original protocol. The corresponding tag protein (either GST or MBP) was first used during negative selections. Selections were run for 4 days. • Bait and tag proteins (10–15 μg in 100 μl PBS) were immobilised in 96‐well MaxiSorb plate (NUNC) o.n. at 4°C. • Escherichia coli OmniMax bacteria were grown in 2YT medium supplemented with tetracycline (100 μg/ml) at 37°C and 200 rpm. • Plates with immobilised bait/tag proteins were blocked with 0.5% BSA in PBS for 1 h at 4°C. • Phage library (10 μl/well) was prepared by diluting 10× with PBS and adding one‐fourth of the volume of PEG/NaCl. For phage precipitation, prepared library was incubated for 10 min on ice followed by centrifugation for 10 min at 10,000 × g at 4°C. […]
Based on the results from phage pool ELISAs, samples from selection Day 3 and 4 were selected for NGS, as described previously (Benz et al, [2022]). • Peptide coding regions were amplified and dual‐barcoded by PCR. […] From the columns, samples were eluted with 30 μl TE (10 mM Tris–HCl, 1 mM EDTA. pH 7.5) buffer and quantified with Quant‐iT PicoGreen dsDNA Assay Kit. • Samples were sequenced on MiSeq (MSC 2.5.0.5/RTA 1.18.54) with a 151 nt (Read1) setup using “Version3” chemistry. […]

[6] = molecular target: T3, GGA1 VHS; test: ITC, GGA1 VHS; format: binding; design: Ka: unit not given beside the values

SMILES | Kd [1] [µM] | Kd [3] [µM] | Kd [4] [µM] | PES [5] | PES [2] | further results
CC(=O)N[C@@H](CC(=O)O)C(=O)N[C@@H](CC(C)C)C(=O)N[C@@H](CC(C)C)C(=O)N[C@@H](CCC(=O)O)C(=O)N[C@@H](CO)C(=O)N1CCC[C@H]1C(=O)N[C@@H](CC(=O)O)C(=O)N[C@H](C(=O)NCC(=O)N[C@@H](CC(C)C)C(=O)N[C@@H](CC(C)C)C(=O)N[C@@H](CCCCN)C(=O)N[C@@H](CC(C)C)C(=O)N[C@@H](C)C(=O)N[C@@H](CO)C(=O)N[C@@H](Cc1ccc(O)cc1)C(N)=O)C(C)C [JUN59–73 E] (Ac-DLLESPDVGLLKLASY-NH2) | – | – | 450 ± 50 | 3.6 (0.023) | – | –
CC(=O)NCC(=O)N[C@@H](C)C(=O)N[C@@H](CCC(=O)O)C(=O)N1CCC[C@H]1C(=O)N[C@@H](C)C(=O)N[C@@H](CC(C)C)C(=O)N[C@@H](CCCCN)C(=O)N[C@@H](CCCNC(=N)N)C(=O)N[C@@H](CO)C(=O)N[C@@H](Cc1c[nH]cn1)C(=O)N[C@@H](CO)C(=O)N[C@@H](CC(=O)O)C(=O)N[C@@H](CO)C(=O)N[C@@H](Cc1ccc(O)cc1)C(N)=O [CDC25A114–125 E] (Ac-GAEPALKRSHSDSY-NH2) | 0.75 ± 0.03 | 2.3 ± 0.3 | – | – | 10 (0.000006) | –
CC(=O)N[C@@H](CCC(=O)O)C(=O)N[C@H](C(=O)N[C@@H](Cc1ccc(O)cc1)C(=O)N[C@@H](Cc1ccc(O)cc1)C(=O)N[C@@H](CC(C)C)C(=O)N[C@@H](CO)C(=O)N[C@@H](CC(=O)O)C(=O)N[C@@H](CCC(=O)O)C(=O)N1CCC[C@H]1C(=O)N[C@@H](CC(C)C)C(=O)N[C@@H](CC(C)C)C(=O)NCC(=O)N1CCC[C@H]1C(=O)N1CCC[C@H]1C(=O)N[C@H](C(=O)NCC(N)=O)C(C)C)[C@@H](C)O [GTSE1_145–160 E] (Ac-ETYYLSDEPLLGPPVG-NH2) | – | – | 199 ± 4 | 9 (0.00012) | – | –

Further lines, with some results ahead:

Kd [1] [µM] | Kd [3] [µM] | Kd [4] [µM] | PES [5] | SMILES | PES [2] | further results
0.8 ± 0.03 | 61 ± 2 | – | – | CC(=O)N[C@@H](CC(N)=O)C(=O)N[C@@H](Cc1ccc(O)cc1)C(=O)N[C@@H](C)C(=O)N1CCC[C@H]1C(=O)N1CCC[C@H]1C(=O)N[C@H](C(=O)N[C@@H](CCCCN)C(=O)N[C@@H](CCCNC(=N)N)C(=O)N[C@@H](CCC(=O)O)C(=O)N[C@@H](CCCNC(=N)N)C(=O)N[C@@H](CCC(=O)O)C(=O)N[C@@H](CO)C(=O)N[C@@H](CO)C(=O)N[C@@H](CC(C)C)C(=O)N[C@H](C(=O)N[C@@H](CCC(N)=O)C(N)=O)[C@@H](C)O)C(C)C [RANBP3_114–129 E (p + 5)] (Ac-NYAPPVKRERESSLTQ-NH2) | −7 (0.00012) | IC50 ([1]; Fig 3E, KPNA4 ARM major, technical triplicates, read-out: IC50 values of displacement curves, with SEM): 7.1 ± 0.5 µM; IC50 ([3]; Fig 3E, KPNA4 ARM minor, technical triplicates, read-out: IC50 values of displacement curves, with SEM): 290 ± 16 µM
5.3 ± 0.4 | 41 ± 2 | – | – | CC(=O)N[C@@H](CC(=O)O)C(=O)N[C@H](C(=O)N[C@@H](CCC(=O)O)C(=O)N[C@@H](Cc1c[nH]cn1)C(=O)NCC(=O)NCC(=O)N[C@@H](CCCCN)C(=O)N[C@@H](CCCNC(=N)N)C(=O)N[C@@H](CCC(=O)O)C(=O)N[C@@H](CCCNC(=N)N)C(=O)N[C@@H](CC(C)C)C(=O)N[C@H](C(=O)N1CCC[C@H]1C(=O)N[C@H](C(=O)N[C@@H](CO)C(=O)N[C@@H](Cc1ccc(O)cc1)C(N)=O)C(C)C)[C@@H](C)O)C(C)C [SQSTM1_258–272 E] (Ac-DVEHGGKRERLTPVSY-NH2) | −3 (0.0096) | –
– | – | 1000 | 4.9 (0.009) | CC[C@H](C)[C@H](NC(=O)[C@H](CC(=O)O)NC(=O)[C@H](CC(=O)O)NC(=O)[C@H](CO)NC(=O)[C@@H](NC(=O)[C@@H]1CCCN1C(=O)[C@H](CO)NC(=O)[C@H](CCCCN)NC(=O)[C@H](Cc1ccc(O)cc1)NC(C)=O)[C@@H](C)O)C(=O)N[C@@H](CCC(=O)O)C(=O)N[C@@H](CC(C)C)C(=O)N[C@@H](CC(C)C)C(=O)N[C@@H](Cc1c[nH]cn1)C(=O)N[C@@H](CCC(=O)O)C(=O)N[C@@H](CO)C(=O)N[C@@H](CCC(N)=O)C(=O)N[C@@H](CO)C(N)=O [RNF11_6–21 E] (Ac-YKSPTSDDIELLHESQS-NH2) | – | Kd ([6]; ITC (iTC200), 50 mM sodium phosphate pH 7.4, 1 mM DTT, average of the runs, technical duplicates): 101 µM; Ka ([6]; ITC single run: date 200220, injection 1): 10600; Ka ([6]; ITC single run: date 200220, injection 2): 9350
